Columns and labels:
Type in all cases: cell-based, human
[1] = tested on: MOLT-4, CUTLL, BJAB and SUD-136 cells; assay: Apoptosis by PI uptake (flow cytometry), GC-resistant cell lines; conditions: for Conferring GC sensitivity (GCIA) by miRNA transfection: BJAB and MOLT-4 transfected with miRNA overexpression plasmids; for Conferring GC sensitivity (GCIA) by miRNA transfection / miR-103-mediated GCIA after re-expression of miR-17˜92a members: Dex 72 hrs; for miR-103-mediated GCIA after re-expression of miR-17˜92a members: miR-103 overexpressing BJAB
From the text: (§1) Cell lines models of human T-cell acute lymphocytic leukemia (T-ALL) and Burkitt's lymphoma (BL), including the glucocorticoid (GC) sensitive cells represented by CEM-C7H2 (T-ALL, the sensitive sub-clone of CCRF-CEM), LOUCY (T-ALL) and DAUDI (BL), and the GC resistant cells represented by MOLT-4 (T-ALL), CUTLL (T-ALL), BJAB (BL) and SUD-136 (BL) were used. At least three kinds of cells were used in each type of cancer in order to minimize cell type specific variables. In addition, two types of malignancies were examined, T-ALL to represent leukemia behavior and BL to represent lymphoma behavior. Bone marrow cells were collected from normal donors and ALL patients. All experiments with human cells were approved by an institutional Helsinki committee and the Ministry of Health. Dexamethasone (DEX), RU486, Propidium iodide (PI), puromycin and Tri-reagent were purchased from sigma and TransIT-LT1 from Mirus.
(§2) Cells were treated with 100 nM Dex for 72 hrs. Percent apoptotic cells was determined by PI-uptake as measured in a FACS Calibur flow cytometer (BD).

BIM = BIM expression (western blot / mRNA RQ)
Experimental: (§3) Total lysate of 10^6 cells was prepared in 50 μl protein sample buffer (PSB) ×1.5. The following antibodies were used for immuno-blotting: anti-β-Catenin and anti-GR (BD Transduction Laboratories); anti-BIM (Calbichem); anti-CDK2, anti-c-Myb, anti-DVL1 and anti-c-Myc (Santa Cruz Biotechnology); anti-cycline E1 (Cell Signaling Technology); and anti-a-Tubulin (Sigma). Immune-blots images are presented by Image Lab 3.0 software. Specific bands were cropped by transferring images to Adobe Photoshop CS5.
(§4) Total RNA was isolated using miRNeasy mini kit (QIAGEN). For Syber green assay, precipitated RNA samples were treated with Poly A Tailing kit (Ambion). c-DNA was prepared by M-MLV reverse transcriptase (Invitrogen). q-PCR amplification of mRNA was operated by Platinum SYBER Green (Invitrogen) with the following primers: FKBP5 5′ […] 3′ and 5′ GTCTCCAATCATCGGCGTT 3′, SGK1 5′ […] 3′ and 5′ […] 3′. For Taqman based PCR, c-DNA was prepared by Taqman MicroRNA Reverse Transcription Kit (Applied Biosystem). q-PCR was performed using TaqMan 2× Universal PCR Master Mix (Applied Biosystem).

miR-103 = miR-103 level in patient peripheral blood lymphoblasts after PRED (qRT-PCR)
Experimental: Blood and bone marrow (BM) samples of pediatric acute lymphoblastic leukemia (ALL) and chronic lymphoblastic leukemia (CLL) patients were collected from hospitals for testing, and the treatment and clinical status of these patients cross-checked in a blind manner. The outline of the study was to collect blood samples from ALL patients at diagnosis, incubate the blood with or without PRED overnight and then measure miR-103 expression levels. 11 BMs of ALL patients and 6 BMs of normal pediatric donors were analyzed. Furthermore, peripheral blood samples from 8 pediatric ALL patients and 1 CLL patient were collected. The CLL and 5 ALL samples were treated with PRED in vitro while from the additional 3 ALL patients blood was taken at diagnosis and at day 1 following PRED treatment.
The outline of the study was to collect blood samples from acute lymphoblastic leukemia (ALL) patients at diagnosis, incubate the blood with or without PRED overnight and then measure miR-103 expression levels. 11 BMs of ALL patients and 6 BMs of normal pediatric donors were analyzed. Furthermore, peripheral blood samples from 8 pediatric ALL patients and 1 chronic lymphoblastic leukemia (CLL) patient were collected. The CLL and 5 ALL samples were treated with PRED in vitro while from the additional 3 ALL patients blood was taken at diagnosis and at day 1 following PRED treatment. […]

GR = GR expression (western blot / mRNA RQ)
Experimental: as §3, §4

miRNAs = assay: Deep sequencing of small RNAs; conditions: CEM-C7H2, Dex 24 hrs
Experimental: RNA of cell samples was extracted by Tri-reagent. 1 μg of each sample was sequenced on an Illumina Genome Analyzer as described by Son et al, Curr Protoc Microbiol; Chapter 1: Unit 1E 4. Data analysis was performed by a miRNAkey application Ronen et al., Bioinformatics; 26(20):2615-2616.

PANK3-GRE = assay: Chromatin immunoprecipitation of PANK3-GRE; conditions: CEM-C7H2
Experimental: The EpiTech ChIP OneDay kit (Qiagen) was employed. IP antibodies used were: Rabbit-IgG (Qiagen), anti-GR (cell signaling) and anti-H3K4me1 (abcam). qRT-PCR was performed by syber green enzyme with the following primers: PANK3-GRE, GAPDH positive control and MYOD1 negative control (Qiagen). GR-GRE primers were planned as follow: Fw-5′ […] 3′ and 5′ […] 3′. % Enrichment was calculated according to the formula: 2̂(CT Mean(Input)−CT Mean of (Interested fraction))*100.

[2] = tested on: CEM-C7H2, LOUCY and DAUDI cells; assay: Apoptosis by PI uptake (flow cytometry), GC-sensitive cell lines; conditions: LOUCY overexpressing miR-103, Dex-treated
From the text: as §1, §2

c-Myc = c-Myc expression (western blot / RQ); conditions: miR-103 overexpressing cells; further downregulated following Dex
Experimental: as §3, §4

c-Myb = c-Myb expression (western blot); conditions: CEM-C7H2 and MOLT-4 T-ALL cells
Experimental: as §3

DVL1 and β-Catenin = DVL1 and β-Catenin expression (western blot)
Experimental: as §3

miR-17˜92a = assay: miR-17~92a cluster expression (RQ / fold change); conditions: resistant BJAB
Experimental: RNA of cell samples was extracted by Tri-reagent. 1 μg of each sample was sequenced on an Illumina Genome Analyzer as described by Son et al, Curr Protoc Microbiol; Chapter 1: Unit 1E 4.
as §4, with “GTCTCCAATCATCGGCGTT” left out

[3] = tested on: CEM-C7H2, BJAB, SUD-136, DAUDI and MOLT-4 cells; assay: BRDU incorporation cellular proliferation assay; conditions: miR-103 overexpressing cells, no Dex
From the text: A BrdU Cell Proliferation Assay kit (Exalpha Biological, Inc) or a BrdU Flow Kit (BD Pharmingen) were used to determine cellular proliferation.

BJAB cells = assay: Total cell number / viability by flow cytometry; conditions: miR-103 overexpressing BJAB
Experimental: FIGS. 6A-E: miR-103 inhibits cellular proliferation. (A) Relative Quantification of miR-103 in BM cells of […]. (B) CEM-C7H2, BJAB and miR-103 overexpressing BJAB cells were treated with Dex (24 hrs), labeled with BRDU (1 hr), fixed and analyzed by flow cytometry. (C) miR-103 overexpressing BJAB, SUD-136, DAUDI and MOLT-4 cells were treated with Dex for 72 hrs. Cellular proliferation was measured by BRDU staining. (D) miR-103 overexpressing BJAB cells were treated with Dex and/or RU486 for 72 hrs. Cell viability was determined by flow cytometry. (E) miR-103 overexpression or sponged cells were treated with Dex and then subjected to western blot analysis using anti Cyclin E1 and CDK2 antibodies. C=Untreated, D=Dex-treated.

cycline E1 and CDK2 = assay: Cycline E1 and CDK2 expression (western blot / RQ); conditions: miR-103 overexpressing cells
Experimental: as §3, §4

Molecule: miR-30d: human miRNA, SEQ ID NO: 3, overexpression plasmid (UGUAAACAUCCCCGACUGGAAG; listed as Homo sapiens)
- Conferring GC sensitivity (GCIA) by miRNA transfection [1]: sensitized

Molecule: miR-30e: human miRNA, SEQ ID NO: 2, overexpression plasmid (UGUAAACAUCCUUGACUGGAAG; listed as Homo sapiens)
- Conferring GC sensitivity (GCIA) by miRNA transfection [1]: sensitized

Molecule: miR-20a: human miRNA of miR-17˜92a, SEQ ID NO: 14, re-expressed from plasmid (UAAAGUGCUUAUAGUGCAGGUAG; listed as Homo sapiens) [reference compound]
- miR-103-mediated GCIA after re-expression of miR-17˜92a members [1]: counteracted the miR-103-mediated GCIA
- BIM level after restoring miR-20a (BIM; miR-103 overexpressing BJAB transfected with miR-20a): re-suppressed

Molecule: miR-15b: human miRNA, SEQ ID NO: 4, overexpression plasmid (UAGCAGCACAUCAUGGUUUACA; listed as Homo sapiens)
- Conferring GC sensitivity (GCIA) by miRNA transfection [1]: sensitized

Molecule: C[C@]12C=CC(=O)C=C1CC[C@@H]1[C@@H]2C(=O)C[C@@]2(C)[C@H]1CC[C@]2(O)C(=O)CO [PRED, prednisone]
- miR-103 level in peripheral malignant lymphoblasts after PRED (miR-103; PRED good responders (PGR) ALL patients): upregulated
- miR-103 level in peripheral malignant lymphoblasts after PRED (miR-103; prednisone poor response (PPR) ALL patients): downregulated

Molecule: miR-16: human miRNA, SEQ ID NO: 5, overexpression plasmid (UAGCAGCACGUAAAUAUUGGCG; listed as Homo sapiens)
- Conferring GC sensitivity (GCIA) by miRNA transfection [1]: sensitized

Molecule: miR-18a: human miRNA of miR-17˜92a, SEQ ID NO: 19, re-expressed from plasmid (UAAGGUGCAUCUAGUGCAGAUAG; listed as Homo sapiens) [reference compound]
- miR-103-mediated GCIA after re-expression of miR-17˜92a members [1]: counteracted the miR-103-mediated GCIA
- miR-103-mediated GR upregulation after restoring miR-18a (GR; miR-103 transfected cells transfected with miR-18a): inhibition of the GR upregulation mediated by miR-103

Molecule: C[C@@H]1C[C@H]2[C@@H]3CCC4=CC(=O)C=C[C@]4(C)[C@@]3(F)[C@@H](O)C[C@]2(C)[C@@]1(O)C(=O)CO [Dex, Dexamethasone]
- Number of miRNAs most significantly modulated by Dex (miRNAs): 22
- PANK3-GRE enrichment, anti-GR antibody, Dex-treated compared with untreated (PANK3-GRE): approximately 5%

Molecule: miR-103: human miRNA, SEQ ID NO: 1 AGCAGCAUUGUACAGGGCUAUGA, expressed from overexpression plasmid (Table 3) (listed as Homo sapiens)
- GC induced apoptosis (GCIA) in miR-103 overexpressing cells [2]: became hyper-sensitive to GCIA
- Conferring GC sensitivity (GCIA) by miRNA transfection [1]: particularly effective in conferring GC sensitivity
- Apoptosis of miR-103 overexpressing resistant cells with Dex ([1]; MOLT-4, CUTLL, BJAB, SUD136 overexpressing miR-103, Dex-treated): underwent significant apoptosis
- Apoptosis on miR-103 overexpression without Dex ([1]; untreated cells): only a minor effect on apoptosis
- c-Myc expression on miR-103 overexpression (c-Myc): reduced
- GR protein and mRNA on miR-103 overexpression (GR; miR-103 overexpressing cells): both GR protein and mRNA upregulation
- BIM expression on miR-103 overexpression (BIM; protein and mRNA, augmented by Dex): induced BIM upregulation both at the protein and mRNA levels
- c-Myb expression on miR-103 overexpression (c-Myb): downregulates
- DVL1 and β-Catenin on miR-103 overexpression (DVL1 and β-Catenin; Burkitt's lymphoma cells): downregulated
- DVL1 expression on miR-103 overexpression (DVL1 and β-Catenin; CEM-C7H2): even upregulated
- β-Catenin level on miR-103 overexpression (DVL1 and β-Catenin; CEM-C7H2): unaffected
- β-Catenin level on miR-103 overexpression (DVL1 and β-Catenin; MOLT4): even upregulated
- miR-17˜92a expression on miR-103 overexpression (miR-17˜92a): reduced expression
- Cell proliferation (BRDU) by miR-103 itself [3]: significantly reduced cell proliferation
- Total cell number in the culture (BJAB cells): reduced the total cell number
- Cycline E1 and CDK2 expression on miR-103 overexpression (cycline E1 and CDK2): downregulated
